In the supplement of paper PMC10307832:

Columns and labels:
Experiment in all cases: relative viability (nuclei count vs DMSO), 5 days (fraction); higher = more cells survive
Neratinib + OSI-027 = compound: CCOc1cc2ncc(C#N)c(Nc3ccc(OCc4ccccn4)c(Cl)c3)c2cc1NC(=O)/C=C/CN(C)C [Neratinib] + COc1cccc2cc(-c3nc([C@H]4CC[C@H](C(=O)O)CC4)n4ncnc(N)c34)[nH]c12 [OSI-027] (partner 0.5 µM)
How it was run: (§1)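 Relative viability is defined as nuclei in treated wells over nuclei in vehicle wells. Duplicate plates were run and medians reported. Lung cancer cell lines in 1536-well plates were dosed by pin tool one day after seeding, with one drug or with a fixed anchor-drug dose plus five library-drug doses (not always all listed) in √10 steps, and nuclei were counted after 5 days.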

Neratinib + Lapatinib = compound: CCOc1cc2ncc(C#N)c(Nc3ccc(OCc4ccccn4)c(Cl)c3)c2cc1NC(=O)/C=C/CN(C)C [Neratinib] + CS(=O)(=O)CCNCc1ccc(-c2ccc3ncnc(Nc4ccc(OCc5cccc(F)c5)c(Cl)c4)c3c2)o1 [Lapatinib] (partner 2 µM)
How it was run: as §1

Neratinib + Linsitinib = compound: CCOc1cc2ncc(C#N)c(Nc3ccc(OCc4ccccn4)c(Cl)c3)c2cc1NC(=O)/C=C/CN(C)C [Neratinib] + C[C@]1(O)C[C@@H](c2nc(-c3ccc4ccc(-c5ccccc5)nc4c3)c3c(N)nccn32)C1 [Linsitinib] (partner 1 µM)
How it was run: as §1

Neratinib + Alpelisib = compound: CCOc1cc2ncc(C#N)c(Nc3ccc(OCc4ccccn4)c(Cl)c3)c2cc1NC(=O)/C=C/CN(C)C [Neratinib] + Cc1nc(NC(=O)N2CCC[C@H]2C(N)=O)sc1-c1ccnc(C(C)(C)C(F)(F)F)c1 [Alpelisib] (partner 2 µM)
How it was run: as §1

Cell Line: 201T
- relative viability (Neratinib + OSI-027; first compound 0.01 µM): 0.725
- relative viability (Neratinib + OSI-027; first compound 0.03162 µM): 0.889
- relative viability (Neratinib + OSI-027; first compound 0.1 µM): 0.683
- relative viability (Neratinib + OSI-027; first compound 0.3162 µM): 0.646
- relative viability (Neratinib + OSI-027; first compound 1 µM): 0.611
- relative viability (Neratinib + Lapatinib; first compound 0.01 µM): 1.07
- relative viability (Neratinib + Lapatinib; first compound 0.03162 µM): 0.943
- relative viability (Neratinib + Lapatinib; first compound 0.1 µM): 0.981
- relative viability (Neratinib + Lapatinib; first compound 0.3162 µM): 1.08
- relative viability (Neratinib + Lapatinib; first compound 1 µM): 1.05
- relative viability (Neratinib + Linsitinib; first compound 0.01 µM): 1.01
- relative viability (Neratinib + Linsitinib; first compound 0.03162 µM): 1.01
- relative viability (Neratinib + Linsitinib; first compound 0.1 µM): 0.92
- relative viability (Neratinib + Linsitinib; first compound 0.3162 µM): 0.931
- relative viability (Neratinib + Linsitinib; first compound 1 µM): 0.852
- relative viability (Neratinib + Alpelisib; first compound 0.01 µM): 1.06
- relative viability (Neratinib + Alpelisib; first compound 0.03162 µM): 0.945
- relative viability (Neratinib + Alpelisib; first compound 0.1 µM): 0.926
- relative viability (Neratinib + Alpelisib; first compound 0.3162 µM): 1.01
- relative viability (Neratinib + Alpelisib; first compound 1 µM): 0.9

Cell Line: A549
- relative viability (Neratinib + Lapatinib; first compound 0.01 µM): 1.09
- relative viability (Neratinib + Lapatinib; first compound 0.03162 µM): 0.968
- relative viability (Neratinib + Lapatinib; first compound 0.1 µM): 0.907
- relative viability (Neratinib + Lapatinib; first compound 1 µM): 0.558
- relative viability (Neratinib + Linsitinib; first compound 0.01 µM): 0.614
- relative viability (Neratinib + Linsitinib; first compound 0.03162 µM): 0.547
- relative viability (Neratinib + Linsitinib; first compound 0.1 µM): 0.468
- relative viability (Neratinib + Linsitinib; first compound 0.3162 µM): 0.391
- relative viability (Neratinib + Linsitinib; first compound 1 µM): 0.365
- relative viability (Neratinib + Alpelisib; first compound 0.01 µM): 0.79
- relative viability (Neratinib + Alpelisib; first compound 0.03162 µM): 0.601
- relative viability (Neratinib + Alpelisib; first compound 0.1 µM): 0.458
- relative viability (Neratinib + Alpelisib; first compound 1 µM): 0.291

Cell Line: A-427
- relative viability (Neratinib + OSI-027; first compound 0.01 µM): 0.487
- relative viability (Neratinib + OSI-027; first compound 0.03162 µM): 0.499
- relative viability (Neratinib + OSI-027; first compound 0.1 µM): 0.467
- relative viability (Neratinib + OSI-027; first compound 0.3162 µM): 0.332
- relative viability (Neratinib + OSI-027; first compound 1 µM): 0.218
- relative viability (Neratinib + Lapatinib; first compound 0.01 µM): 1.08
- relative viability (Neratinib + Lapatinib; first compound 0.03162 µM): 1.12
- relative viability (Neratinib + Lapatinib; first compound 0.1 µM): 0.972
- relative viability (Neratinib + Lapatinib; first compound 0.3162 µM): 1
- relative viability (Neratinib + Lapatinib; first compound 1 µM): 0.998
- relative viability (Neratinib + Linsitinib; first compound 0.01 µM): 1.13
- relative viability (Neratinib + Linsitinib; first compound 0.03162 µM): 1.19
- relative viability (Neratinib + Linsitinib; first compound 0.1 µM): 1.11
- relative viability (Neratinib + Linsitinib; first compound 0.3162 µM): 1.07
- relative viability (Neratinib + Linsitinib; first compound 1 µM): 0.731
- relative viability (Neratinib + Alpelisib; first compound 0.01 µM): 1.01
- relative viability (Neratinib + Alpelisib; first compound 0.03162 µM): 1.16
- relative viability (Neratinib + Alpelisib; first compound 0.1 µM): 1.06
- relative viability (Neratinib + Alpelisib; first compound 1 µM): 0.521

Cell Line: ABC-1
- relative viability (Neratinib + OSI-027; first compound 0.01 µM): 0.436
- relative viability (Neratinib + OSI-027; first compound 0.03162 µM): 0.441
- relative viability (Neratinib + OSI-027; first compound 0.1 µM): 0.47
- relative viability (Neratinib + OSI-027; first compound 0.3162 µM): 0.42
- relative viability (Neratinib + OSI-027; first compound 1 µM): 0.214
- relative viability (Neratinib + Lapatinib; first compound 0.01 µM): 1.44
- relative viability (Neratinib + Lapatinib; first compound 0.03162 µM): 1.15
- relative viability (Neratinib + Lapatinib; first compound 0.1 µM): 1.21
- relative viability (Neratinib + Lapatinib; first compound 0.3162 µM): 1.05
- relative viability (Neratinib + Lapatinib; first compound 1 µM): 0.629
- relative viability (Neratinib + Linsitinib; first compound 0.01 µM): 0.781
- relative viability (Neratinib + Linsitinib; first compound 0.1 µM): 0.611
- relative viability (Neratinib + Linsitinib; first compound 0.3162 µM): 0.433
- relative viability (Neratinib + Linsitinib; first compound 1 µM): 0.292
- relative viability (Neratinib + Alpelisib; first compound 0.01 µM): 1.16
- relative viability (Neratinib + Alpelisib; first compound 0.03162 µM): 1.04
- relative viability (Neratinib + Alpelisib; first compound 0.1 µM): 0.726
- relative viability (Neratinib + Alpelisib; first compound 0.3162 µM): 0.904
- relative viability (Neratinib + Alpelisib; first compound 1 µM): 0.384

Cell Line: BEN
- relative viability (Neratinib + OSI-027; first compound 0.01 µM): 0.286
- relative viability (Neratinib + OSI-027; first compound 0.03162 µM): 0.304
- relative viability (Neratinib + OSI-027; first compound 0.1 µM): 0.275
- relative viability (Neratinib + OSI-027; first compound 0.3162 µM): 0.283
- relative viability (Neratinib + OSI-027; first compound 1 µM): 0.286
- relative viability (Neratinib + Lapatinib; first compound 0.01 µM): 0.739
- relative viability (Neratinib + Lapatinib; first compound 0.03162 µM): 1.12
- relative viability (Neratinib + Lapatinib; first compound 0.1 µM): 0.464
- relative viability (Neratinib + Lapatinib; first compound 0.3162 µM): 0.59
- relative viability (Neratinib + Lapatinib; first compound 1 µM): 0.565
- relative viability (Neratinib + Linsitinib; first compound 0.01 µM): 1.03
- relative viability (Neratinib + Linsitinib; first compound 0.03162 µM): 0.961
- relative viability (Neratinib + Linsitinib; first compound 0.1 µM): 0.814
- relative viability (Neratinib + Linsitinib; first compound 0.3162 µM): 0.744
- relative viability (Neratinib + Linsitinib; first compound 1 µM): 0.544
- relative viability (Neratinib + Alpelisib; first compound 0.01 µM): 1.06
- relative viability (Neratinib + Alpelisib; first compound 0.03162 µM): 1.28
- relative viability (Neratinib + Alpelisib; first compound 0.1 µM): 0.983
- relative viability (Neratinib + Alpelisib; first compound 0.3162 µM): 1.04
- relative viability (Neratinib + Alpelisib; first compound 1 µM): 0.598

Cell Line: CAL-12T
- relative viability (Neratinib + OSI-027; first compound 0.01 µM): 0.614
- relative viability (Neratinib + OSI-027; first compound 0.03162 µM): 0.719
- relative viability (Neratinib + OSI-027; first compound 0.1 µM): 0.345
- relative viability (Neratinib + OSI-027; first compound 0.3162 µM): 0.237
- relative viability (Neratinib + OSI-027; first compound 1 µM): 0.197
- relative viability (Neratinib + Lapatinib; first compound 0.01 µM): 0.725
- relative viability (Neratinib + Lapatinib; first compound 0.03162 µM): 0.702
- relative viability (Neratinib + Lapatinib; first compound 0.1 µM): 0.529
- relative viability (Neratinib + Lapatinib; first compound 0.3162 µM): 0.635
- relative viability (Neratinib + Lapatinib; first compound 1 µM): 0.295
- relative viability (Neratinib + Linsitinib; first compound 0.01 µM): 0.771
- relative viability (Neratinib + Linsitinib; first compound 0.03162 µM): 1.09
- relative viability (Neratinib + Linsitinib; first compound 0.1 µM): 0.703
- relative viability (Neratinib + Linsitinib; first compound 0.3162 µM): 0.455
- relative viability (Neratinib + Linsitinib; first compound 1 µM): 0.343
- relative viability (Neratinib + Alpelisib; first compound 0.01 µM): 1.1
- relative viability (Neratinib + Alpelisib; first compound 0.03162 µM): 1.21
- relative viability (Neratinib + Alpelisib; first compound 0.1 µM): 0.886
- relative viability (Neratinib + Alpelisib; first compound 0.3162 µM): 0.517
- relative viability (Neratinib + Alpelisib; first compound 1 µM): 0.201

Cell Line: COR-L23
- relative viability (Neratinib + OSI-027; first compound 0.01 µM): 0.863
- relative viability (Neratinib + OSI-027; first compound 0.03162 µM): 0.862
- relative viability (Neratinib + OSI-027; first compound 0.1 µM): 0.753
- relative viability (Neratinib + OSI-027; first compound 0.3162 µM): 0.68
- relative viability (Neratinib + OSI-027; first compound 1 µM): 0.285
- relative viability (Neratinib + Lapatinib; first compound 0.01 µM): 1.07
- relative viability (Neratinib + Lapatinib; first compound 0.03162 µM): 1.14
- relative viability (Neratinib + Lapatinib; first compound 0.1 µM): 0.781
- relative viability (Neratinib + Lapatinib; first compound 0.3162 µM): 0.882
- relative viability (Neratinib + Lapatinib; first compound 1 µM): 0.598
- relative viability (Neratinib + Linsitinib; first compound 0.01 µM): 1.01
- relative viability (Neratinib + Linsitinib; first compound 0.03162 µM): 1.08
- relative viability (Neratinib + Linsitinib; first compound 0.1 µM): 0.879
- relative viability (Neratinib + Linsitinib; first compound 0.3162 µM): 0.835
- relative viability (Neratinib + Linsitinib; first compound 1 µM): 0.318
- relative viability (Neratinib + Alpelisib; first compound 0.01 µM): 0.971
- relative viability (Neratinib + Alpelisib; first compound 0.03162 µM): 0.83
- relative viability (Neratinib + Alpelisib; first compound 0.1 µM): 0.732
- relative viability (Neratinib + Alpelisib; first compound 0.3162 µM): 0.698
- relative viability (Neratinib + Alpelisib; first compound 1 µM): 0.322
